Measured values published in paper PMC4042666 (Bioorganic & medicinal chemistry letters, 2013).

Experiments:
[1] = system: HCV NS3/4A protease genotype 1b mutant A156S; assay type: biochemical; conditions: A156S vs wild type
[2] = system: HCV NS3/4A protease genotype 1b mutant D168V; assay type: biochemical; conditions: D168V vs wild type
[3] = system: HCV NS3/4A protease genotype 1b mutant R155K; assay type: biochemical; conditions: R155K vs wild type
[4] = target: HCV NS3/4A protease genotype 1b mutant A156T (Hepatitis C virus genotype 1b, UniProt Q9WMX2, A1182T); assay: biochemical
[5] = system: HCV NS3/4A protease genotype 1b mutant A156T; assay: biochemical; conditions: A156T vs wild type
[6] = system: HCV Replicon in Huh7 cells; assay: Inhibition of HCV RNA replication, subgenomic HCV replicon system in Huh7 cells; assay type: cell-based, Hepatitis C virus
Plasmin = Plasmin (Homo sapiens, UniProt P00747); assay: Effect on human protease Plasmin; assay type: biochemical; conditions: read-out: Plasmin IC90
Plasmin, sequence (P00747 581-810 limits assumed): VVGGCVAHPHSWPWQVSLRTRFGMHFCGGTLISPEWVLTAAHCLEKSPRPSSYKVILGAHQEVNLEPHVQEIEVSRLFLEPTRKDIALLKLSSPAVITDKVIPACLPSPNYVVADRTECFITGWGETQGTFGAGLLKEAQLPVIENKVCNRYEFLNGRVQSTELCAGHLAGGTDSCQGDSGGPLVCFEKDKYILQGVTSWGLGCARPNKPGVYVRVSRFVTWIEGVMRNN
Plasmin, sequence (P00747 97-580 partner limits assumed): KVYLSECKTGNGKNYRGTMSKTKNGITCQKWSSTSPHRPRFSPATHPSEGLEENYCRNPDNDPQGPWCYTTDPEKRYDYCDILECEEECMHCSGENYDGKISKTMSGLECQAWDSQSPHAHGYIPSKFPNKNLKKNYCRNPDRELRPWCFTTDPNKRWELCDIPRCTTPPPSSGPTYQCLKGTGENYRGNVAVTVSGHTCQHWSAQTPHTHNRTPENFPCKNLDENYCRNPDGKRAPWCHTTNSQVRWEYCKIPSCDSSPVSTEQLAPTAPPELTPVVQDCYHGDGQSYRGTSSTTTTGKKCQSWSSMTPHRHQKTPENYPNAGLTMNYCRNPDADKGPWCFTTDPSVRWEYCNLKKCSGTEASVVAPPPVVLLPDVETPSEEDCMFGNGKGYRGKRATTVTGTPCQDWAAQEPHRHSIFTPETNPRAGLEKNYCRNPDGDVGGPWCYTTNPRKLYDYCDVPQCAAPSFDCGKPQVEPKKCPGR

Thrombin = Thrombin (Homo sapiens, UniProt P00734); assay: Effect on human protease Thrombin; assay type: biochemical
[7] = system: Vero cells (African green monkey kidney epithelial cells); assay: Cytotoxicity in Vero cells; assay type: cell-based
[8] = system: primary human PBM (peripheral blood mononuclear) cells; assay: Cytotoxicity in PBM cells; assay type: cell-based
[9] = system: HCV NS3/4A protease genotype 1b mutant V170A; assay type: biochemical; conditions: V170A vs wild type
[10] = system: CEM cells (a human-T-cell-derived cell line); assay: Cytotoxicity in CEM cells; assay type: cell-based
Huh7 cells = assay: Cytotoxicity in Huh7 cells

CC[C@@H]1C[C@]1(NC(=O)[C@@H]1C[C@@H]2CN1C(=O)[C@H](C(C)(C)C)NC(=O)OCC(C)(C)CCCCc1cccc3c1CN(C3)C(=O)O2)C(=O)NS(=O)(=O)C1CC1 [MK-7009, vaniprevir]
Fold Increase (FI) of EC50 [1]: < 0.16 | Fold Increase (FI) of EC50 [2]: > 160 | Fold Increase (FI) of EC90 [2]: > 77 | Fold Increase (FI) of EC50 [3]: > 160 | Fold Increase (FI) of EC90 [3]: > 77 | EC90 [4]: > 1 µM | Fold Increase (FI) of EC90 [5]: > 77

CCCC(NC(=O)C1N(C(=O)[C@@H](NC(=O)[C@@H](NC(=O)c2cnccn2)C2CCCCC2)C(C)(C)C)CC12Cc1ccccc1C2)C(=O)C(=O)NC1CC1 (stereo partly drawn) [Compound 37b]
Anti-HCV activity, in words [6]: complete loss of potency

CCC[C@H](NC(=O)[C@@H]1[C@H]2CCC[C@H]2CN1C(=O)[C@@H](NC(=O)[C@@H](NC(=O)c1cnccn1)C1CCCCC1)C(C)(C)C)C(=O)C(=O)NC1CC1 [Compound 2, telaprevir]
IC90 (Plasmin): 110 ± 32 µM | EC90 [4]: > 100 µM | Fold Increase (FI) of EC90 [5]: > 130

CC(C)(C)NC(=O)N[C@H](C(=O)N1C[C@H]2[C@@H]([C@H]1C(=O)NC(CC1CCC1)C(=O)C(N)=O)C2(C)C)C(C)(C)C (stereo partly drawn) [Compound 1, boceprevir]
Inhibition of thrombin, in words (Thrombin): submicromolar inhibition | EC90 [4]: > 100 µM

CCCC(NC(=O)C1N(C(=O)[C@@H](NC(=O)[C@@H](NC(=O)c2cnccn2)C2CCCCC2)C(C)(C)C)CC12CCCCC2)C(=O)C(=O)NC1CC1 (stereo partly drawn) [Compound 37h]
Toxicity in Vero cells, in words [7]: toxicity in the micromolar range | Fold Increase (FI) of EC90 [1]: > 10 | Toxicity in PBM cells, in words [8]: toxicity in the micromolar range | Fold Increase (FI) of EC50 [9]: > 1.2 | Toxicity in CEM cells, in words [10]: toxicity in the micromolar range | EC90 [4]: > 100 µM | Fold Increase (FI) of EC50 [5]: > 130 | Fold Increase (FI) of EC90 [5]: > 10

CCCC(NC(=O)C1CCN1C(=O)[C@@H](NC(=O)[C@@H](NC(=O)c1cnccn1)C1CCCCC1)C(C)(C)C)C(=O)C(=O)NC1CC1 (stereo partly drawn) [Compound 37d]
Anti-HCV activity, in words [6]: inactive

CCCC(NC(=O)C1N(C(=O)[C@@H](NC(=O)NC2CCCCC2)C(C)(C)C)CC12Cc1ccccc1C2)C(=O)C(=O)NC1CC1 (stereo partly drawn) [Compound 41e]
Toxicity toward Huh7 cells, in words (Huh7 cells): toxic

CC(C)(C)[C@H](NC(=O)NC1CCCCC1)C(=O)N1CC2(Cc3ccccc3C2)C1C(=O)NC(CC1CCC1)C(=O)C(=O)NC1CC1 (stereo partly drawn) [Compound 41f]
Toxicity toward Huh7 cells, in words (Huh7 cells): toxic
